Source: US10806147B2, “Treatment method for a hydrocarbon-containing system using a biocide” (RHODIA OPERATIONS, priority 2011, dated 2020)
Like-named read-outs stand apart in the source and are kept apart here.

Tested on: sulphate-reducing prokaryotes (SRP)
Method: The bioreactor used was constructed from titanium; this construction eliminated the risk of any production of iron sulphides through corrosion, which in turn would react with injected THPS. […] The column was packed with low-iron sand (Fisher, UK) with a glass fibre plug at the base to prevent the draining of sand during filling. The column fittings (injection and production pipework) were constructed from 316 stainless steel (Swagelok).
The column was maintained at 1000 psig (70 barg) and 24° C.±1° C. The pressure was held between the pump head and the proportional release valve. The use of 1-way valves in the injection head permitted disconnection and maintenance of the pump without depressurisation of the column.
The pump used was a high-pressure liquid chromatography pump (PerkinElmer Series 100). The pump was operated in a continuous fashion at an injection rate of 1 mL/min, injecting into the head of the bioreactor.
Injection fluid was prepared daily on workdays, with three days of fluid prepared on Friday to cover the weekend. During the week, a single pump was used on a continuous basis. Over the weekend, three pumps were used, cycling in three hour injection windows. The injection fluid was stored in a polyethylene terephthalate (PET) nitrogen-pressurised vessel at 2° C.±1° C.
The North Sea seawater used throughout the study was collected from Bridlington, Yorkshire on a quarterly basis. It was de-oxygenated through nitrogen sparging over a 48 hour period. Metabolisable carbon was added to the seawater in the form of volatile fatty acids (VFA) in the ratio of 100 acetate:10 propionate:1 butyrate by weight. Acetate and propionate were added as salt in order to avoid acidification of the injection fluid, whilst butyrate was added as the acid. The pH of the injection fluid was between 7.5 and 8 before the addition of THPS. The VFA totalled 111 mg/L, which, if converted entirely to sulphide (i.e. none used for biomass growth), should permit the production of 67 mg/L H2S.
The bioreactor was inoculated using a mixed consortia of prokaryotes obtained from North Sea seawater and North Sea oil reservoirs. Rawwater Engineering Company Limited (RECL) maintained a mixed consortia of sulphate-reducing prokaryotes (SRP) in bioreactors under the experimental conditions required for the project (24° C., 1000 psig). These bioreactors were used solely for inoculation purposes. Both bioreactors increased the chances of successfully inoculating new bioreactors, by limiting the changes in environmental conditions the microbes were subjected to and thus limiting stress. The column was inoculated with microbes, shut-in for a fortnight and operated under batch flow conditions (140 mL fluid per day in equally spaced thirty-minute injection windows) until SRP were known to be established through the production of hydrogen sulphide.
Effluent samples were collected on a daily basis onto zinc acetate. This reacted with the volatile hydrogen sulphide to form stable zinc sulphide precipitate, which permitted analysis at a later time. All samples were analysed within six hours of collection. The samples were analysed through the standard methylene blue colourimetric procedure, which was calibrated monthly against the iodometric sulphide method.
Three trials were conducted: • Trial 1—Starting with a dose of 30 mg/L THPS, the dose concentration of THPS was reduced in 10 mg/L steps until sulphide recovery was observed. […] This indicated the minimum starting concentration of THPS required to convert the SRP from normal activity to biostasis.

Tetrakis(hydroxymethyl)phosphonium sulphate [THPS]
period of continued low hydrogen sulphide after removal of THPS, before gradual rise (Trial 1, after 86 days total biocide injection, THPS removed entirely): 25 to 27 days | increase in sulphide during dosing (Trial 1, dose reduced to 10 mg/L, 14 days): no significant increase in sulphide was recorded | biological activity and sulphide production on introduction of THPS (Trial 1, pre-soured bioreactor, 30 mg/L active THPS (60 mg/L Tolcide PS50A, incl. penetrant), continuous, 24 °C, 1000 psig): collapse in biological activity and sulphide production to sub-mg/L concentrations | biological activity and effluent sulphide on introduction of THPS (Trial 2, 30 mg/L THPS plus penetrant, continuous): immediate collapse of biological activity and effluent sulphide | effluent sulphide during reduced dosing (Trial 2, 20 and 10 mg/L THPS, biocide injected 91 days in total): remained suppressed | biostasis of the column (Trial 3, 5 mg/L THPS plus penetrant, slow inhibited increase in effluent sulphide): insufficient to keep the entire column under biostasis | effluent sulphide (Trial 3, dose increased to 20 mg/L THPS): the effluent sulphide collapsed and remained low | effluent sulphide (Trial 3, dose increased via 10 mg/L to 15 mg/L THPS): appeared to stabilise the effluent sulphide | growth of the SRP population (Trial 3, sour column, 5 mg/L THPS plus penetrant, continuous): rapidly halted the growth of the SRP population
